Test results: patent US4431742A, “Radioreceptor assay for benzodiazepines in saliva” (The United States of America as represented by the …, priority 1981, dated 1984)

system: diazepam receptor (fresh rat frontal cortex); assay: radioreceptor assay: inhibition of ^3 H-diazepam binding (selectivity, drugs incubated with saliva); conditions: 10^-5 M, ^3 H-diazepam 0.50 nM

SMILES | inhibition of ^3 H-diazepam binding compared with saliva itself
CN(C)CCCN1c2ccccc2Sc2ccc(Cl)cc21 [chlorpromazine] | failed to inhibit ^3 H-diazepam binding more than saliva itself
CNCCCN1c2ccccc2CCc2ccccc21 [desmethylimipramine] | failed to inhibit ^3 H-diazepam binding more than saliva itself
C=CCN1CC[C@]23CCCC[C@H]2[C@H]1Cc1ccc(O)cc13 [levallorphan] | failed to inhibit ^3 H-diazepam binding more than saliva itself
C#CCN(C)Cc1ccccc1 [pargyline] | failed to inhibit ^3 H-diazepam binding more than saliva itself
O=c1[nH]c2ccccc2n1C1CCN(CCCC(c2ccc(F)cc2)c2ccc(F)cc2)CC1 [pimozide] | failed to inhibit ^3 H-diazepam binding more than saliva itself

system: benzodiazepine receptor (fresh rat frontal cortex); assay: recovery of benzodiazepines pre-incubated with saliva, measured by benzodiazepine radioreceptor assay; assay type: binding; conditions: 100 nM diazepam pre-incubated with control saliva

SMILES | maximum percentage lowering of binding vs drug added directly with no saliva present
CN1C(=O)CN=C(c2ccccc2)c2cc(Cl)ccc21 [diazepam] | equivalent
